US9353082B2, “Pharmaceutical compounds” (BIAL—PORTELA & CA, S.A., priority 2008, dated 2016)

Experiments:
[1] = test system: carboxylesterase (CE); experiment: Carboxylesterase (CE) activity in rat liver microsomes (LVms), p-nitrophenyl acetate; format: biochemical; details: 10 uM compound, read 10 min after substrate, remaining CE activity
Method: (§1) FAAH inhibition was determined as described above. Inhibition of monoacylglycerol lipase (MAGL) and carboxylesterase (CE) was performed according to the protocols described below. The controls for both in vitro and in vivo were the reaction mix minus the test compounds. Therefore, a low value in Table 2 below for the test compounds indicates a strong inhibitor.
(§2) CE activity measurement is based on the formation of p-nitrophenol from p-nitrophenyl acetate. Briefly, in 96-well plates 8 μg/ml of rat or mouse liver microsomes (LVms) were incubated with 10 μM FAAH inhibitors for 15 min and then the substrate, p-nitrophenyl acetate, was added to a final concentration of 1 mM. The plate was read at 405 nm 10 min after substrate addition for the appearance of p-nitrophenol using a spectrophotometer. The carboxylesterase activity in microsome extracts without inhibitor added were set at 100% as control and the remaining CE activities after incubation with inhibitors were calculated relative to the control.

[2] = biological target: T1, FAAH (Rattus norvegicus, UniProt P97612); experiment: In vitro FAAH activity in rat brain membranes, 3H-AEA substrate, % of control; format: biochemical, Wistar rats; details: low value = strong inhibitor; for In Vitro FAAH activity, 10 uM: 10 uM test compound; for FAAH 100 nM: 100 nM compound; for In Vitro FAAH activity, 100 nM: 100 nM test compound; for In Vitro 100 nM (FAAH activity, % of control): compound at 100 nM
T1 construct: Frozen brains (without cerebellum) from Wistar rats were used; from tissue; host or cells: Wistar rat brain (without cerebellum), washed membrane pellets
T1 sequence (P97612 1-579): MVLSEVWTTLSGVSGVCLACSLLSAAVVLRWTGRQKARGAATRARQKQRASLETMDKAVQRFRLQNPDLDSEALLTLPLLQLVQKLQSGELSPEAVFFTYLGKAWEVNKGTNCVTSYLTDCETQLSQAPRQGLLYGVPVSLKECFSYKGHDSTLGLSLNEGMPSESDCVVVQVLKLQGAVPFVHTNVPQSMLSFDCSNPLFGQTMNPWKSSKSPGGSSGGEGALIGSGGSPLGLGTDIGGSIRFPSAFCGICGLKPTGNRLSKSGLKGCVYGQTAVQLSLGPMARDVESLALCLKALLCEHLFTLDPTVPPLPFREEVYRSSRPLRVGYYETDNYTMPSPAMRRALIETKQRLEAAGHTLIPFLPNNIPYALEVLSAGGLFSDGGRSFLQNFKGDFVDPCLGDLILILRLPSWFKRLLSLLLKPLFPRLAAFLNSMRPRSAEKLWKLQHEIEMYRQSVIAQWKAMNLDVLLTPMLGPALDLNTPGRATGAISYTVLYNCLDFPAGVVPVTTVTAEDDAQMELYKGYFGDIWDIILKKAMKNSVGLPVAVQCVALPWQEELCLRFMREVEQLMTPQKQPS
How it was run: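 FAAH activity measured as 3H-ethanolamine released from 2 μM [3H]AEA over 10 min by rat brain membrane preparation, after 15 min 37 °C preincubation with test compound at 10 or 0.1 μM. Charcoal-separated supernatant scintillation-counted; values expressed as % of control minus no-protein blank.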

[3] = test system: carboxylesterase (CE); experiment: Carboxylesterase (CE) activity in mouse liver microsomes (LVms), p-nitrophenyl acetate; format: biochemical; details: 10 uM compound, read 10 min after substrate, remaining CE activity
Method: as §1, §2

[4] = biological target: T2, FAAH (Mus musculus, UniProt O08914); experiment: In vivo FAAH inhibition after oral dosing, remaining activity in brain homogenate (BRh, central nervous tissue); design: species or system NMRI mice; details: brain homogenate; for In Vivo BRh 3 mg·kg 8 h (remaining FAAH activity, % of control): 8 h after dosing, low value = strong inhibitor
T2 construct: A fragment of liver, left lung lobe and brain without cerebellum were removed; from tissue; host or cells: male NMRI mice; brain (without cerebellum) and liver homogenates
T2 sequence (O08914 1-579): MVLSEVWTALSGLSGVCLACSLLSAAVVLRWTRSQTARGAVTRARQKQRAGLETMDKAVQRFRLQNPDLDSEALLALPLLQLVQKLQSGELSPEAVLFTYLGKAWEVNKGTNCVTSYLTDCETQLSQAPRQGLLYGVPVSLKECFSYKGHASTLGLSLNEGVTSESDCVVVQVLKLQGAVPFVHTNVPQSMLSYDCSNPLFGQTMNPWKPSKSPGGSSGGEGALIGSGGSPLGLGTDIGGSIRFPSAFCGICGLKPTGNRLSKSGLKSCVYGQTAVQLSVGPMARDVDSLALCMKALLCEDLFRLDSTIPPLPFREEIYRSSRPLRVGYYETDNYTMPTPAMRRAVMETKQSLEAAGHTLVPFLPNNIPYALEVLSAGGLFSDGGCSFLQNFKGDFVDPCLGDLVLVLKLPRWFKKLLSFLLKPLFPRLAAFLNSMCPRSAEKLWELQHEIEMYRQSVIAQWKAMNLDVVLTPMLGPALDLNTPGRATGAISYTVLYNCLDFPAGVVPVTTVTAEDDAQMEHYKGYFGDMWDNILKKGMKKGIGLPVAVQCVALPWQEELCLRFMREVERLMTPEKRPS
How it was run: (§3)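 Remaining FAAH activity is given as % of vehicle-treated controls after blank subtraction, measured by radiolabelled AEA hydrolysis (2 μM AEA, 5 nM 3H-AEA, 37 °C) in brain (10 min) or liver (7 min) homogenates. These came from fasted male NMRI mice dosed orally at 30 or 3 mg/kg.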

[5] = biological target: T2, FAAH; experiment: In vivo FAAH inhibition after oral dosing, remaining activity in liver homogenate (LVh, peripheral tissue); design: species or system NMRI mice; details: liver homogenate; for In Vivo LVh 3 mg·kg 8 h (remaining FAAH activity, % of control): 8 h after dosing, low value = strong inhibitor
How it was run: as §3

[6] = rat brain membranes, 100 = no measurable inhibition

Row | SMILES | In Vitro FAAH activity, 100 nM [2] | In Vivo BRh 3 mg/kg 8 h, remaining FAAH activity [4] | In Vivo LVh 3 mg/kg 8 h, remaining FAAH activity [5] | also measured
1 | COc1ccc(N(C)C(=O)n2cnc(-c3ccc4ccccc4c3)c2)cc1 [Compound 16, N-(4-methoxyphenyl)-N-methyl-4-(naphthalen-2-yl)-1H-imidazole-1-carboxamide] | – | – | – | CE Rat LVms 10 uM 10 min [1]: 87.5 % of control; FAAH 10 uM ([2]; 10 uM compound, rat brain membranes, 100 = no measurable inhibition): 24.7 % of control; In Vitro FAAH activity, 10 uM [2]: 24.7 % of control; CE Mou LVms 10 uM 10 min [3]: 95.4 % of control
2 | O=C(NCCCCc1ccccc1)n1nnc2ccccc21 [Compound 85, N-(4-phenylbutyl)-1H-benzo[d][1,2,3]triazole-1-carboxamide] | 0.1 % of control | – | – | CE Rat LVms 10 uM 10 min [1]: 33 % of control; FAAH 100 nM [2, 6]: 0.1 % of control; CE Mou LVms 10 uM 10 min [3]: 31 % of control
3 | CN(C(=O)n1cnc2ccccc21)C1CCCCC1 [Compound 222, N-cyclohexyl-N-methyl-1H-benzo[d]imidazole-1-carboxamide] | 102.9 % of control | 111.5 % of control | 59.2 % of control | –
4 | CN(C(=O)n1cnc(-c2cccnc2)c1)C1CCCCC1 [Compound 335, N-cyclohexyl-N-methyl-4-(pyridin-3-yl)-1H-imidazole-1-carboxamide] | – | – | – | In Vitro 100 nM (FAAH activity, % of control) ([2]; rat brain membranes): 75.4 % of control; In Vivo BRh 3 mg·kg 8 h (remaining FAAH activity, % of control) [4]: 3.1 % of control; In Vivo LVh 3 mg·kg 8 h (remaining FAAH activity, % of control) [5]: 1 % of control
5 | CN(C(=O)n1cnc(-c2ccccc2)c1)c1ccccc1 [Compound 4, N-methyl-N,4-diphenyl-1H-imidazole-1-carboxamide] | 83.6 % of control | – | – | In Vitro FAAH activity, 10 uM [2]: 0.1 % of control; In Vivo BRh 30 mg/kg 1 h, remaining FAAH activity [4]: 14.3 % of control; In Vivo LVh 30 mg/kg 1 h, remaining FAAH activity [5]: 10.6 % of control
6 | CN(C(=O)n1cnc(-c2cccc([N+](=O)[O-])c2)c1)C1CCCCC1 [Compound 275, N-cyclohexyl-N-methyl-4-(3-nitrophenyl)-1H-imidazole-1-carboxamide] | – | – | – | In Vitro 100 nM (FAAH activity, % of control) ([2]; rat brain membranes): 43.8 % of control; In Vivo BRh 3 mg·kg 8 h (remaining FAAH activity, % of control) [4]: 12.8 % of control; In Vivo LVh 3 mg·kg 8 h (remaining FAAH activity, % of control) [5]: 2.4 % of control
7 | CN(C(=O)n1cnc(-c2ccc(OCCN3CCNCC3)cc2)c1)c1ccccc1.Cl.Cl [Compound 203, N-methyl-N-phenyl-4-(4-(2-(piperazin-1-yl)ethoxy)phenyl)-1H-imidazole-1-carboxamide dihydrochloride] | 93.5 % of control | 101.8 % of control | 64.3 % of control | –
8 | O=C(N1CCCc2ccccc21)n1cnc(-c2cccc(O)c2)c1 [Compound 51, (3,4-dihydroquinolin-1(2H)-yl)(4-(3-hydroxyphenyl)-1H-imidazol-1-yl)methanone] | 100.8 % of control | 130.4 % of control | 132.3 % of control | –
9 | CN(C(=O)n1cnc(-c2cccnc2)c1)C12CC3CC(CC(C3)C1)C2 [Compound 289, N-methyl-4-pyridin-3-yl-N-tricyclo[3.3.1.13,7]dec-1-yl-1H-imidazole-1-carboxamide] | – | – | – | In Vitro 100 nM (FAAH activity, % of control) ([2]; rat brain membranes): 109.8 % of control; In Vivo BRh 3 mg·kg 8 h (remaining FAAH activity, % of control) [4]: 113.2 % of control; In Vivo LVh 3 mg·kg 8 h (remaining FAAH activity, % of control) [5]: 96.1 % of control
10 | COc1cccc(-c2cn(C(=O)N3COCC3(C)C)cn2)c1 [Compound 329, (4,4-dimethyloxazolidin-3-yl)(4-(3-methoxyphenyl)-1H-imidazol-1-yl)methanone] | – | – | – | In Vitro 100 nM (FAAH activity, % of control) ([2]; rat brain membranes): 99.5 % of control; In Vivo BRh 3 mg·kg 8 h (remaining FAAH activity, % of control) [4]: 83.3 % of control; In Vivo LVh 3 mg·kg 8 h (remaining FAAH activity, % of control) [5]: 18.5 % of control
11 | O=C(N1CCS(=O)(=O)C1)n1nnc2ccccc21 [Compound 167, 1-[(1,1-dioxido-1,3-thiazolidin-3-yl)carbonyl]-1H-benzotriazole] | 96.2 % of control | 99.9 % of control | 104 % of control | –

The next lines start with results.

Row | In Vitro FAAH activity, 100 nM [2] | In Vivo BRh 3 mg/kg 8 h, remaining FAAH activity [4] | In Vivo LVh 3 mg/kg 8 h, remaining FAAH activity [5] | SMILES | also measured
12 | 0 % of control | – | – | CN(C(=O)n1nnc2cc(Br)ccc21)C1CCCCC1 [Compound 97, 5-bromo-N-cyclohexyl-N-methyl-1H-benzo[d][1,2,3]triazole-1-carboxamide] | CE Rat LVms 10 uM 10 min [1]: 41.1 % of control; FAAH 100 nM [2, 6]: 0 % of control; CE Mou LVms 10 uM 10 min [3]: 50.7 % of control
13 | 21 % of control | 60 % of control | 20.8 % of control | CN(Cc1ccccc1)C(=O)n1cnc(-c2cccc3ccccc23)n1 [Compound 191, N-benzyl-N-methyl-3-(naphthalen-1-yl)-1H-1,2,4-triazole-1-carboxamide] | –
14 | 0.2 % of control | 68.1 % of control | 40.5 % of control | O=C(N1CCC(CCc2ccccc2)CC1)n1nnc2ccccc21 [Compound 100, (1H-benzo[d][1,2,3]triazol-1-yl)(4-phenethylpiperidin-1-yl)methanone] | –
15 | 1 % of control | 0.5 % of control | 0.3 % of control | CN(C(=O)n1nnc2ccccc21)C1CCCCC1 [Compound 58, N-cyclohexyl-N-methyl-1H-benzo[d][1,2,3]triazole-1-carboxamide] | In Vivo BRh 30 mg/kg 1 h, remaining FAAH activity [4]: 0.3 % of control; In Vivo LVh 30 mg/kg 1 h, remaining FAAH activity [5]: 0.9 % of control
16 | 96.5 % of control | 78.7 % of control | 37.7 % of control | CC1(C)COCN1C(=O)n1cnc(-c2ccc(Cl)cc2)c1 [Compound 186, (4-(4-chlorophenyl)-1H-imidazol-1-yl)(4,4-dimethyloxazolidin-3-yl)methanone] | –
